Laboratory results published in patent publication US10299467B2, “Animal model for type 2 diabetes and obesity” (Universitaetsklinikum Freiburg, priority 2012, dated 2019).

Columns and labels:
Assay type in all cases: in vivo, mouse
[1] = system: WAT of mice; assay: β3-adrenergic agonist treatment of mice, H&E staining of white adipose tissue (beige fat islets)
Protocol: (§1) All mice were housed in the pathogen-free barrier facility of the University Medical Center Freiburg in accordance with institutional guidelines and approved by the regional board. Mice were maintained in a temperature- and humidity-controlled animal facility with a 12-hour light/dark cycle, free access to water, and a standard rodent chow (Kliba, breeding, 3807). The high-fat diet (HFD) study was carried out with a chow containing 4.056 kcal/kg (fat: 1.600 kcal/kg and sucrose: 1.600 kcal/kg; Research Diets). HFD was given to mice at 5 weeks of age. Mice were analysed at 25 weeks of age. For cold exposure experiments, mice were maintained at 10° C. with a 12 hour light/dark cycle, free access to water, and a standard rodent chow. Animals were killed by cervical dislocation, tissues were immediately collected, weighted, frozen in liquid nitrogen or processed for further analyses. Nomenclature for dissected adipose depots was used according to Seale et al.^17. Epididymidal WAT (epWAT): prominent bilateral intra-abdominal visceral depots in male mice attached to the epididymis. Inguinal WAT (ingWAT): bilateral superficial inguinal depots between the skin and muscle fascia just anterior to the lower segment of the hind limbs. Perimuscular WAT (pmWAT): depots located on the upper part of the quadriceps muscle. […]

[2] = system: LSD1; assay: β3-adrenergic agonist treatment of mice, Western blot of LSD1 in WAT; conditions: wild-type mice, CL316,243 injected intraperitoneally at 1 mg/kg vs vehicle
Protocol: as §1, with “al.^17.” for “al.^17. Epididymidal WAT (epWAT): prominent bilateral intra-abdominal visceral depots in male mice attached to the epididymis. Inguinal WAT (ingWAT): bilateral superficial inguinal depots between the skin and muscle fascia just anterior to the lower segment of the hind limbs. Perimuscular WAT (pmWAT): depots located on the upper part of the quadriceps muscle.”
Homogenates were separated in 10% polyacrylamide gels and blotted to Hybond nitrocellulose membranes (GE Healthcare). […] Secondary antibodies conjugated to horseradish peroxidase (GE Healthcare) were detected using an enhanced chemiluminescence detection system (GE Healthcare). Protein levels were quantified using the Chemi Capt software (Peqlab).

[3] = system: WAT of mice; assay: β3-adrenergic agonist treatment of Ctrl and LSD1+/− mice, qRT-PCR transcript levels in WAT
Protocol: All mice were housed in the pathogen-free barrier facility of the University Medical Center Freiburg in accordance with institutional guidelines and approved by the regional board. Mice were maintained in a temperature- and humidity-controlled animal facility with a 12-hour light/dark cycle, free access to water, and a standard rodent chow (Kliba, breeding, 3807). The high-fat diet (HFD) study was carried out with a chow containing 4.056 kcal/kg (fat: 1.600 kcal/kg and sucrose: 1.600 kcal/kg; Research Diets). HFD was given to mice at 5 weeks of age. Mice were analysed at 25 weeks of age. For cold exposure experiments, mice were maintained at 10° C. with a 12 hour light/dark cycle, free access to water, and a standard rodent chow. Animals were killed by cervical dislocation, tissues were immediately collected, weighted, frozen in liquid nitrogen or processed for further analyses. Nomenclature for dissected adipose depots was used according to Seale et al.^17. Epididymidal WAT (epWAT): prominent bilateral intra-abdominal visceral depots in male mice attached to the epididymis. Inguinal WAT (ingWAT): bilateral superficial inguinal depots between the skin and muscle fascia just anterior to the lower segment of the hind limbs. Perimuscular WAT (pmWAT): depots located on the upper part of the quadriceps muscle. Retroperitoneal WAT (rpWAT): bilateral depots in abdominal cavity behind the peritoneum on the dorsal side of the kidney. Interscapular BAT (BAT): most prominent depot of brown adipocytes in rodents, found between the scapulae. In vivo experiments including food consumption, serum analysis, glucose tolerance and insulin sensitivity tests, temperature measurements, body lean and fat contents, and energy expenditure were described^48. CL316,243 (Sigma-Aldrich) was injected intraperitoneally at 1 mg/kg.
RNA was isolated with TRIzol Reagent (Invitrogen). […] Quantitative RT-PCR was performed using the Abgene SYBR Green PCR kit (Invitrogen) according to the supplier's protocol. Data were analysed using the standard curve method^53. […]

In the case of `C[C@H](Cc1ccc2c(c1)OC(C(=O)[O-])(C(=O)[O-])O2)NC[C@H](O)c1cccc(Cl)c1.[Na+].[Na+]` [CL316,243], the “clusters of beige fat cells in WAT” value ([1]; LSD1+/− mice compared to control mice, both treated with CL316,243) was “fewer clusters of beige fat cells”, the “beige adipocyte formation in WAT” value ([1]; wild-type mice, CL316,243 injected intraperitoneally at 1 mg/kg vs vehicle) was “appearance of multilocular beige adipocytes” and the “LSD1 protein levels in WAT” value [2] was “increased”. For the same compound, the “expression of white fat-selective and adipogenic markers” value ([3]; Ctrl and LSD1+/− mice, vs vehicle) was “not significantly affected”, the “adrenergic induction of Cidea, Prdm16, Pgc-1α, Ucp1 and beige fat-selective markers in WAT” value ([3]; LSD1+/− mice) was “impaired” and the “expression of Cidea, Prdm16, Pgc-1α, and Ucp1 and of beige fat-selective markers in WAT” value ([3]; control mice, vs vehicle) was “significantly increases”.
